Values quoted from earlier work, collected in patent publication US20200338012A1 (TAHO Pharmaceuticals Ltd., priority 2019, published 2020).
In brackets after ≈: the same amount, converted by molar mass.

Tests used:
[1] = oral tablet

water solubility: 67.9 µg/mL (≈ 148 µM)
bioavailability [1]: 50%
SMILES: COc1ccc(-n2nc(C(N)=O)c3c2C(=O)N(c2ccc(N4CCCCC4=O)cc2)CC3)cc1 [apixaban, Apixaban]
